Test results taken from patent publication US7732637B2, “Acylamide compounds having secretagogue or inducer activity of adiponectin” (Ajinomoto Co., Inc., priority 2005, dated 2010).

Tested on: uncoupling protein 2 (UCP2) gene
Experiment: UCP2 mRNA expression level in liver of ob/ob mice
Assay type: in vivo
Settings: 500 mg/kg orally once a day; autopsy 38th day; divided by GAPDH mRNA; vs control groups; FIG. 4
Experimental: (§1) Male ob/ob mice of 5 weeks old (purchased from Charles River Laboratories Japan, Inc.) were preliminarily fed for one week by an experimental diet containing 25% by weight ratio of fats. Then, they were divided into groups so that their body weights and blood glucose were the same between the groups. After the division, N-lauroyl-L-valine (500 mg/kg) was orally administered once a day, and a control group was set, to which vehicle was administered. […] The non-fasting blood glucose was measured on the 6th, 14th and 26th day after starting the administration. The blood glucose was measured by collecting 6 μL of the blood from the caudal vein and using a Fuji DriChem system (produced by FUJIFILM Medical Co., Ltd.). […] Further, on the 27th day after starting the administration, the blood was collected by retroorbital bleeding, and the insulin and triglyceride concentrations in plasma were measured. […] SYBER GREEN Master Mix (ABI) and a primer for amplifying uncoupling protein 2 (UCP2) gene, acyl-CoA oxidase (ACO) gene or glyceraldehyde-3-phosphate dehydrogenase (GAPDH) gene were added to cDNA corresponding to 7.5 ng of total RNA, and the gene expression level was measured with ABI 7700 detector. […]

SMILES	UCP2 mRNA expression level in the liver
CCCCCCCCCCCC(=O)N[C@H](C(=O)O)C(C)C [Example 20, N-lauroyl-L-valine]	significantly increased

Tested on: acyl-CoA oxidase (ACO) gene
Experiment: ACO mRNA expression level in liver of ob/ob mice
Assay type: in vivo
Settings: 500 mg/kg orally once a day; autopsy 38th day; divided by GAPDH mRNA; vs control groups; FIG. 5
Experimental: as §1

SMILES	ACO mRNA expression level in the liver
CCCCCCCCCCCC(=O)N[C@H](C(=O)O)C(C)C [Example 20, N-lauroyl-L-valine]	significantly increased

Tested on: 3T3-L1 cells
Experiment: Adiponectin output in culture supernatant of differentiated 3T3-L1 cells (LANCE immunoassay)
Assay type: cell-based, mouse
Settings: adiponectin concentration in culture supernatant, test compound 7 μg/mL, 72 hours; control without compound 24 ng/mL
Experimental: 3T3-L1 cells were suspended in Dulbecco's Modified Eagle Medium (GIBCO, 12430-054) containing 10% fetal bovine serum to become 1.5×10^5 cells/mL and seeded. After the incubation in the CO2 incubator at 37° C. for 72 hours, the medium was removed by suction. Then, the medium was exchanged for Dulbecco's Modified Eagle Medium containing 10 μg/mL of insulin, 1 μM of dexamethasone, 0.5 mM of IBMX (3-isobutyl-1-methylxanthine) and 10% fetal bovine serum, and further incubated in the CO2 incubator at 37° C. for 48 hours. The test compound was added to the medium, and then the incubation was continued for 72 hours.
Eu (Europium) chelate labeling of anti-mouse adiponectin antibody (AF1119, by R&D Systems) was conducted by using 100 μg of LANCE Eu-W1024-ITC chelate (AD0013 by Perkin Elmer), which is a Eu chelate labeling reagent, to 200 μg of the antibody in accordance with the method described in the manual of the manufacturer. Biotin labeling of anti-mouse adiponectin antibody (AF1119, by R&D Systems) was conducted by using 26.8 μg of NHS-Biotin (1418165, Biotin Labeling Kit, by Boehringer Mannheim), which is a biotin labeling reagent, to 100 μg of the antibody in accordance with the method described in the manual.
The amount of adiponectin in the cell culture supernatant was measured as follows. The culture supernatant was diluted fivefold with TBS (Tris-buffered saline; 20 mM Tris-HCl pH 7.4, 0.15M NaCl) containing 0.1% bovine serum albumin (BSA), and 10 μL thereof was mixed with 300 ng/mL of the Eu chelate labeled antibody, 300 ng/mL of the biotin labeled antibody, 2.5 μg/mL of Streptavidin-APC (AD0201, by Perkin Elmer) and 10 μL of a TBS solution containing 0.1% BSA on the 384-well plate. After preserving the mixture at room temperature for 2 days, LANCE count was measured by using ARVO-SX multilabel counter (by Perkin Elmer) in accordance with the protocol of the LANCE method. At the same time, the mouse adiponectin preparation (8060-K, by LINCO) was also measured, and the concentration of adiponectin in the culture supernatant was calculated from the calibration curve of the preparation.
Adiponectin outputs were measured by the same method as that of Examples 1 to 31.

SMILES	Adiponectin output [ng/mL]
CCCCCCCCCCCC(=O)NC(C)(CC)C(=O)O (racemic) [Example 16]	78
CCCCCCCCCCCC(=O)NC(C)(C(=O)O)C(C)C (racemic) [Example 18]	87
CCCCCCCCCCCC(=O)NC(C(N)=O)C(C)C (racemic) [Example 21]	70
CCCCCCCCCCCCNC(=O)C(NC(=O)CCCCCCCCCCC)C(C)C (racemic) [Example 22]	64
CCCCCCCCCCCC(=O)N[C@H](C(=O)NC1CCCCC1)C(C)C (racemic) [Example 23, N-lauroyl-L-valine cyclohexylamide]	65
C=CCCCCCCCCC(=O)N[C@@H](Cc1ccccc1)C(=O)O [Example 8]	54
CCCCCCCCCCC(=O)N[C@@H](Cc1ccccc1)C(=O)O [Example 12]	58
CCCCCCCCCCCC(=O)NC(C)(C)C(=O)O [Example 17]	81
CCCCCCCCCCCC(=O)N[C@@H](CCSC)C(=O)O [Example 19]	71
CCCCCCCCCCCC(=O)N(CC)[C@H](C(=O)O)C(C)C [Example 24]	66

Same assay, conditions: adiponectin concentration in culture supernatant, test compound 12.5 μM, 72 hours; control without compound 24 ng/mL

SMILES	Adiponectin output [ng/mL]
CCCCCCCCC(=O)N[C@H](C(=O)O)[C@@H](C)CC [Example 2]	58
CCCCCCCCC(=O)N[C@@H](CC(C)C)C(=O)O [Example 3]	42
CCCCCCCCC(=O)N[C@H](C(=O)O)C(C)C [Example 4]	64
CCCCCCCCCC(=O)N[C@H](C(=O)O)[C@@H](C)CC [Example 5]	74
CCCCCCCCCC(=O)N[C@@H](CC(C)C)C(=O)O [Example 6]	54
C=CCCCCCCCCC(=O)N[C@@H](CC(C)C)C(=O)O [Example 7]	61
CCCCCCCCCC(=O)N[C@H](C(=O)O)C(C)C [Example 9]	81
C=CCCCCCCCCC(=O)N[C@H](C(=O)O)C(C)C [Example 10]	59
CCCCCCCCCCC(=O)N[C@@H](CC(C)C)C(=O)O [Example 11]	45
CCCCCCCCCCCC(=O)N[C@H](C(=O)O)[C@@H](C)CC [Example 14]	84
CCCCCCCCCCCC(=O)N[C@@H](CC(C)C)C(=O)O [Example 15]	67
CCCCCCCCCCCC(=O)N[C@H](C(=O)O)C(C)C [Example 20, N-lauroyl-L-valine]	92
CCCCCCCCCCCCCC(=O)N[C@H](C(=O)O)[C@@H](C)CC [Example 25]	93
CCCCCCCCCCCCCC(=O)N[C@@H](CC(C)C)C(=O)O [Example 26]	56
CCCCCCCCCCCCCCCC(=O)N[C@@H](CC(C)C)C(=O)O [Example 27]	57
CCCCCCCCCCCCCCCC(=O)N[C@H](C(=O)O)C(C)C [Example 28]	31
CCCCCCCCCCCCCCCCCC(=O)N[C@@H](CC(C)C)C(=O)O [Example 29]	43
CCCCCCCCCCCCCCCCCC(=O)N[C@H](C(=O)O)C(C)C [Example 30]	43
CCCCCCCCCCCCCCCCCCCCCC(=O)N[C@H](C(=O)O)C(C)C [Example 31]	42

Same assay, conditions: adiponectin output as ratio to that of Example 20 in Table 1; same method as Examples 1 to 31

SMILES	Adiponectin Ratio to Exam. 20 of Table 1 [%]
CCCCCCCCCCCC(=O)NC(C(=O)O)C(C(F)(F)F)C(F)(F)F (racemic) [Example 34]	25
CCCCCCCCCCCC(=O)NC(Cc1ccccc1C)C(=O)O (racemic) [Example 38]	31
CCCCCCCCCCCC(=O)NC(C)(Cc1ccccc1)C(=O)O (racemic) [Example 41]	22
CCCCCCCCCC(=O)N[C@H](C(=O)O)C(C)(C)C [Example 32]	56
CCCCCCCCCCCC(=O)N[C@H](C(=O)O)C(C)(C)C [Example 33]	103
CCCCCCCCCCCC(=O)NC(C(=O)O)C(C)CC (centres unmarked) [Example 35]	83
CCCCCCCCCCCC(=O)N[C@H](C(=O)O)c1ccccc1 [Example 36]	33
CCCCCCCCCCCC(=O)N[C@@H](Cc1ccc(OC)cc1)C(=O)O [Example 37]	46
CCCCCCCCCCCC(=O)N[C@H](C(=O)O)C1CCCCC1 [Example 39]	41
CCCCCCCCCCCC(=O)N[C@H](C(=O)O)C(c1ccccc1)c1ccccc1 [Example 40]	14
CCCCCCCCCCCC(=O)N[C@@H](Cc1ccc(Cl)cc1)C(=O)O [Example 42]	44
CCCCCCCCCCCC(=O)N[C@@H](Cc1csc2ccccc12)C(=O)O [Example 43]	20

Tested on: ob/ob mice
Experiment: Oral administration to ob/ob mice on 25% fat diet: blood glucose, glycated hemoglobin, plasma insulin and triglyceride
Assay type: in vivo
Settings: 500 mg/kg orally once a day; 6th, 14th and 26th day vs before starting the administration; FIG. 1
Experimental: Male ob/ob mice of 5 weeks old (purchased from Charles River Laboratories Japan, Inc.) were preliminarily fed for one week by an experimental diet containing 25% by weight ratio of fats. Then, they were divided into groups so that their body weights and blood glucose were the same between the groups. After the division, N-lauroyl-L-valine (500 mg/kg) was orally administered once a day, and a control group was set, to which vehicle was administered. Taking into consideration the possibility that the effect of N-lauroyl-L-valine depends on the diet intake, pair-feeding group was also set as a control group in addition to the vehicle administered group, to which vehicle was daily administered in an average diet intake per a day of the N-lauroyl-L-valine administered group and, therefore, the diet intake thereof is quite the same as that of the N-lauroyl-L-valine administered group during the test period. The non-fasting blood glucose was measured on the 6th, 14th and 26th day after starting the administration. The blood glucose was measured by collecting 6 μL of the blood from the caudal vein and using a Fuji DriChem system (produced by FUJIFILM Medical Co., Ltd.). On the 26th day after starting the administration, the blood was collected by retroorbital bleeding, and 5 μL of its blood was used to conduct the measurement of glycated hemoglobin with the analyzer (HLC-723 GHbV, by Tosoh Technosystem). Further, on the 27th day after starting the administration, the blood was collected by retroorbital bleeding, and the insulin and triglyceride concentrations in plasma were measured. The measurement of the insulin concentration in plasma was conducted by using an insulin measurement kit (by Morinaga Institute of Biological Science, Inc.). The measurement of the triglyceride concentration in plasma was conducted by using a Fuji DriChem system. On the 38th day after staring the administration, autopsy was conducted to collect the liver of the mouse. Then, total RNA was extracted from the frozen liver by using ISOGEN (by Nippon Gene Co., Ltd.), and 0.5 μg of total RNA, oligo (dT) (by Invitrogen) and SuperScript III reverse transcriptase (by Invitrogen) were used to prepare cDNA. SYBER GREEN Master Mix (ABI) and a primer for amplifying uncoupling protein 2 (UCP2) gene, acyl-CoA oxidase (ACO) gene or glyceraldehyde-3-phosphate dehydrogenase (GAPDH) gene were added to cDNA corresponding to 7.5 ng of total RNA, and the gene expression level was measured with ABI 7700 detector. The expression levels of UCP2 and ACO genes were amended by being divided by the expression level of GAPDH mRNA. Two kinds of primers for amplifying UCP2 gene were used wherein the base sequences were ggcctctggaaagggactt and […] from 5′. […]

SMILES	non-fasting blood glucose
CCCCCCCCCCCC(=O)N[C@H](C(=O)O)C(C)C [Example 20, N-lauroyl-L-valine]	decreased

Same assay, conditions: 500 mg/kg orally once a day; 26th day; vs vehicle group and pair-feeding group; FIG. 2

SMILES	glycated hemoglobin level
CCCCCCCCCCCC(=O)N[C@H](C(=O)O)C(C)C [Example 20, N-lauroyl-L-valine]	significantly lower

Same assay, conditions: 500 mg/kg orally once a day; 27th day vs before; increased in control groups; FIG. 3

SMILES	fasting insulin concentration in plasma
CCCCCCCCCCCC(=O)N[C@H](C(=O)O)C(C)C [Example 20, N-lauroyl-L-valine]	such increase was not seen

Same assay, conditions: 500 mg/kg orally once a day; 27th day; vs control groups; FIG. 6

SMILES	triglyceride concentration in plasma
CCCCCCCCCCCC(=O)N[C@H](C(=O)O)C(C)C [Example 20, N-lauroyl-L-valine]	tended to be lower
